Laboratory results from ChEMBL document CHEMBL1201862, “PubChem BioAssay data set” (2004).
Structures can show the parent of a compound that is named as a salt.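 Briefly, cells in 96-well plates were exposed to five compound concentrations for 48 h, and endpoints were estimated by linear interpolation. GI50: concentration for 50% inhibition of growth.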 Active and inactive are the calls of the source. Rule as the data show it: active = GI50 up to about 1.1 µM and inactive = higher.

Key:
Test in all cases: growth of human tumour cells (NCI), 48 h
SN12C = tested on: SN12C
M14 = tested on: M14
TK-10 = tested on: TK-10
UACC-257 = tested on: UACC-257
SW-620 = tested on: SW-620
K562 = tested on: K562
MDA-N = tested on: MDA-N
HT-29 = tested on: HT-29
HCT-116 = tested on: HCT-116
OVCAR-3 = tested on: OVCAR-3
SF-539 = tested on: SF-539
HCT-15 = tested on: HCT-15
IGROV-1 = tested on: IGROV-1
LOX IMVI = tested on: LOX IMVI
MDA-MB-435 = tested on: MDA-MB-435
SK-MEL-28 = tested on: SK-MEL-28
U-251 = tested on: U-251
CCRF-CEM = tested on: CCRF-CEM
SF-268 = tested on: SF-268
SNB-78 = tested on: SNB-78

SMILES | GI50 (SN12C) | GI50 (M14) | GI50 (TK-10) | GI50 (UACC-257) | GI50 (SW-620) | GI50 (K562) | GI50 (MDA-N) | GI50 (HT-29) | GI50 (HCT-116) | GI50 (OVCAR-3) | GI50 (SF-539) | GI50 (HCT-15) [µM] | GI50 (IGROV-1) | GI50 (LOX IMVI) | GI50 (MDA-MB-435) | GI50 (SK-MEL-28) | GI50 (U-251) | GI50 (CCRF-CEM) | GI50 (SF-268) | GI50 (SNB-78)
Nc1nc(-c2cccnc2)cc(-c2cc(-c3cccnc3)nc(N)n2)n1 | > 100 µM (inactive) | > 100 µM (inactive) | > 100 µM (inactive) | > 100 µM (inactive) | > 100 µM (inactive) | > 100 µM (inactive) | 58.7 µM (inactive) | > 100 µM (inactive) | > 100 µM (inactive) | > 100 µM (inactive) | > 100 µM (inactive) | > 100 | > 100 µM (inactive) | > 100 µM (inactive) | 50.1 µM (inactive) | > 100 µM (inactive) | > 100 µM (inactive) | 75.2 µM (inactive) | > 100 µM (inactive) | –
CC(=O)O/C(=C1\C[C@H]2[C@@H]3CC=C4C[C@@H](OC(C)=O)CC[C@]4(C)[C@H]3CC[C@]2(C)C1=O)C(F)(F)F | 8.97 µM (inactive) | 7.19 µM (inactive) | 12.2 µM (inactive) | 6.98 µM (inactive) | 5.61 µM (inactive) | 0.977 µM (active) | 7.64 µM (inactive) | 10.1 µM (inactive) | 6.15 µM (inactive) | 5.87 µM (inactive) | 7.24 µM (inactive) | 4.03 | 5.56 µM (inactive) | 1.86 µM (inactive) | 7.85 µM (inactive) | 14.9 µM (inactive) | 5.43 µM (inactive) | 1.95 µM (inactive) | 6.62 µM (inactive) | –
CCOC(=O)C1=C(C)N(NC(=O)Nc2ccccc2)C2(N)N(NC(=O)Nc3ccccc3)C(C)=C(C(=O)OCC)C12C#N (stereo unspecified) | 17.6 µM (inactive) | 19.9 µM (inactive) | 25.2 µM (inactive) | 23.7 µM (inactive) | 18.9 µM (inactive) | 20 µM (inactive) | – | 20.7 µM (inactive) | 17.5 µM (inactive) | 17.5 µM (inactive) | – | 19.4 | 19.7 µM (inactive) | 18.9 µM (inactive) | – | 16.9 µM (inactive) | 18.4 µM (inactive) | 28.2 µM (inactive) | 19.9 µM (inactive) | 19.4 µM (inactive)
CCOC(=O)C1C2C1C1C(C(=O)OCC)C21 (stereo unspecified) | > 100 µM (inactive) | > 100 µM (inactive) | > 100 µM (inactive) | 61 µM (inactive) | > 100 µM (inactive) | > 100 µM (inactive) | > 100 µM (inactive) | 57.5 µM (inactive) | > 100 µM (inactive) | > 100 µM (inactive) | > 100 µM (inactive) | > 100 | > 100 µM (inactive) | > 100 µM (inactive) | > 100 µM (inactive) | > 100 µM (inactive) | > 100 µM (inactive) | > 100 µM (inactive) | > 100 µM (inactive) | –
NCCNc1cccc2ccccc12 | > 100 µM (inactive) | > 100 µM (inactive) | > 100 µM (inactive) | > 100 µM (inactive) | > 100 µM (inactive) | – | – | > 100 µM (inactive) | > 100 µM (inactive) | > 100 µM (inactive) | > 100 µM (inactive) | > 100 | > 100 µM (inactive) | > 100 µM (inactive) | – | – | > 100 µM (inactive) | – | > 100 µM (inactive) | > 100 µM (inactive)
O=[N+]([O-])c1ccc2sc(/C=N/c3ccc(O)cc3)cc2c1 | 30.1 µM (inactive) | 31.3 µM (inactive) | 63.7 µM (inactive) | 23 µM (inactive) | 17 µM (inactive) | 18.1 µM (inactive) | 27.3 µM (inactive) | 46.9 µM (inactive) | 27.9 µM (inactive) | 15.2 µM (inactive) | 22 µM (inactive) | 32.4 | 31.4 µM (inactive) | 23.3 µM (inactive) | 18.2 µM (inactive) | 36.1 µM (inactive) | 19.8 µM (inactive) | 15.3 µM (inactive) | 29.5 µM (inactive) | –
O=c1ccs[nH]1 | 11.1 µM (inactive) | 9.89 µM (inactive) | 13.8 µM (inactive) | 8.91 µM (inactive) | 4.06 µM (inactive) | 7.82 µM (inactive) | 17.5 µM (inactive) | 11.2 µM (inactive) | 8.79 µM (inactive) | 8.17 µM (inactive) | 5.92 µM (inactive) | 11.6 | 24.2 µM (inactive) | 7.26 µM (inactive) | 13.6 µM (inactive) | 25.1 µM (inactive) | 7.21 µM (inactive) | 1.56 µM (inactive) | 14.2 µM (inactive) | –
CCc1nc(N)nc(N)c1-c1ccc2c(c1)nnn2CCc1ccccc1 | 22.5 µM (inactive) | 4.66 µM (inactive) | 35.4 µM (inactive) | 22.2 µM (inactive) | 4.92 µM (inactive) | 1.55 µM (inactive) | 6.1 µM (inactive) | 3.53 µM (inactive) | 2.36 µM (inactive) | 16.6 µM (inactive) | 21.3 µM (inactive) | 3.09 | 4.72 µM (inactive) | 5.16 µM (inactive) | 6.52 µM (inactive) | 31.4 µM (inactive) | 7.69 µM (inactive) | 7.23 µM (inactive) | 10.3 µM (inactive) | –
N#Cc1[nH]c(=O)n(-c2ccccc2)c1N | > 10 µM (inactive) | > 10 µM (inactive) | > 10 µM (inactive) | > 10 µM (inactive) | > 10 µM (inactive) | > 10 µM (inactive) | > 10 µM (inactive) | > 10 µM (inactive) | > 10 µM (inactive) | > 10 µM (inactive) | > 10 µM (inactive) | > 10 | > 10 µM (inactive) | 0.0995 µM (active) | > 10 µM (inactive) | > 10 µM (inactive) | > 10 µM (inactive) | > 10 µM (inactive) | > 10 µM (inactive) | –
CC1=NN(C(=O)c2ccncc2)C(=O)C1/N=N/c1ccc(F)cc1 (stereo unspecified) | > 100 µM (inactive) | > 100 µM (inactive) | > 100 µM (inactive) | > 100 µM (inactive) | > 100 µM (inactive) | > 100 µM (inactive) | – | > 100 µM (inactive) | 96.8 µM (inactive) | > 100 µM (inactive) | 59.2 µM (inactive) | > 100 | > 100 µM (inactive) | > 100 µM (inactive) | – | > 100 µM (inactive) | – | – | > 100 µM (inactive) | 63.1 µM (inactive)
COc1ccc(C2=NN(C(=O)c3ccccc3)C(O)(c3cc(F)c(Cl)cc3Cl)C2)cc1OC (stereo unspecified) | 94.4 µM (inactive) | 73.6 µM (inactive) | 35.9 µM (inactive) | 60.4 µM (inactive) | > 100 µM (inactive) | > 100 µM (inactive) | 57.5 µM (inactive) | 23.5 µM (inactive) | 50 µM (inactive) | 20.4 µM (inactive) | 43.1 µM (inactive) | > 100 | 40.1 µM (inactive) | 97.1 µM (inactive) | 31.8 µM (inactive) | 49.8 µM (inactive) | 32.4 µM (inactive) | > 100 µM (inactive) | 55.5 µM (inactive) | –
CC(C)=CCCC(C)CCOS(=O)C(F)(F)F (stereo unspecified) | 7.93 µM (inactive) | 1.35 µM (inactive) | > 100 µM (inactive) | 19.5 µM (inactive) | 3.29 µM (inactive) | 3.78 µM (inactive) | 1.6 µM (inactive) | 5.12 µM (inactive) | 12.6 µM (inactive) | 11.2 µM (inactive) | 31.3 µM (inactive) | 2.49 | 12.8 µM (inactive) | 16.3 µM (inactive) | 4.18 µM (inactive) | 11 µM (inactive) | 9.66 µM (inactive) | 4.29 µM (inactive) | 17.7 µM (inactive) | –
COC(=O)CC(c1cn(S(=O)(=O)c2ccc(C)cc2)c2ccccc12)C1C[C@@H](C(=O)OC)N(C(=O)OC(C)(C)C)C1=O (stereo partly specified) | 32.1 µM (inactive) | > 100 µM (inactive) | > 100 µM (inactive) | > 100 µM (inactive) | 12.5 µM (inactive) | 54.1 µM (inactive) | 55.8 µM (inactive) | 26.7 µM (inactive) | 14.9 µM (inactive) | 31 µM (inactive) | 7.66 µM (inactive) | 26.5 | 16.4 µM (inactive) | 20.8 µM (inactive) | 41 µM (inactive) | > 100 µM (inactive) | 33.9 µM (inactive) | 9.18 µM (inactive) | 53.6 µM (inactive) | –
CCS(=O)(=O)CCn1c(=O)c2c(ncn2C)n(C)c1=O | > 100 µM (inactive) | > 100 µM (inactive) | > 100 µM (inactive) | 45.4 µM (inactive) | > 100 µM (inactive) | > 100 µM (inactive) | > 100 µM (inactive) | > 100 µM (inactive) | > 100 µM (inactive) | > 100 µM (inactive) | > 100 µM (inactive) | > 100 | > 100 µM (inactive) | > 100 µM (inactive) | > 100 µM (inactive) | > 100 µM (inactive) | > 100 µM (inactive) | > 100 µM (inactive) | > 100 µM (inactive) | –
COc1ccc(Cc2nccc3cc(OC)c(OC)cc23)cc1OC [PAPAVERINE HYDROCHLORIDE] | > 100 µM (inactive) | > 100 µM (inactive) | > 100 µM (inactive) | > 100 µM (inactive) | > 100 µM (inactive) | 37.3 µM (inactive) | 94 µM (inactive) | 41.3 µM (inactive) | 39.3 µM (inactive) | > 100 µM (inactive) | 76 µM (inactive) | 87.3 | > 100 µM (inactive) | 60.8 µM (inactive) | > 100 µM (inactive) | > 100 µM (inactive) | > 100 µM (inactive) | > 100 µM (inactive) | > 100 µM (inactive) | –
